The text below walks through data of patent US3987198A, “Method for lowering the free fatty acid content in sebum using certain fatty acid amides” (Syntex (U.S.A.) Inc., priority 1975, dated 1976).

In brackets after ≈: the same amount, converted by molar mass. Like-named read-outs stand apart in the source and are kept apart here.

One test has as its system C. acnes (ATCC No. 6919). The experiment in a line: Growth inhibition of C. acnes in Fluid Thioglycollate culture tubes. The conditions noted are these: for MIC: Cutibacterium acnes, read-out: Inhibitory Concentration at 72 Hours; for Effect on growth of C. acnes: at 200 μg/ml. Type of test: cell-based, Corynebacterium acnes. The method, then:
Culture tubes are prepared containing 10 ml. of freshly prepared Difco Fluid Thioglycollate medium with agar and indicator. […] Each tube is inoculated with 0.2 ml. of a 48 hour culture of C. acnes (ATCC No. 6919), and the tubes are inspected at 24 hour intervals. Incubation at 37° C.

Test [1] can be described thus: Double-blind crossover study of 5% oleic acid diethanolamide gel on the face, forehead surface lipids. The class given is in vivo, human subjects. The source says:
The subjects were selected on the basis of having a higher than 20 % free fatty acid content in their individual total sebum. None were on systemic antibiotic therapy during the course of this study.
The subjects were instructed to wash three times daily with Ivory soap, immediately after rinsing and drying the face to apply sufficient medication (active agent or placebo) to cover the entire face with the exception of the eye and cheekbone areas, and to gently massage the medication into the skin. Each treatment was continued for the last 6 weeks of the study, no medication being used, however, during the two-week no-treatment period. No other therapy was permitted on the face during the course of the study. No medicated soaps or shampoos, oily hair dressings or any hair sprays were permitted. Cosmetics other than lipstick and eyeshadow were not to be applied on the days of sebum collection. On days of sebum collection, the forehead was not to be washed, wiped, or touched in the 6 hours between the time of cleansing and the time of sebum collection.
Twice a week during the first two weeks of the study, a forehead sample of surface lipids were obtained from each subject and measured for total weight and free fatty acids. No medication or placebo therapy was employed during this two-week period. These samples from each subject constitute the baseline data for this study. Twice a week for the next 6 weeks, further surface lipid samples were taken from each subject and analyzed. In all cases, the surface lipid samples were collected by drawing sebum from both the left and right sides of the subject's forehead.

Test [2] deals with T1, crude enzyme from cultures of Corynebacterium acnes (ATCC No. 6919) (lipolytic enzymes) (Cutibacterium acnes, UniProt Q59644).
T1 construct: crude ethanol-acetic acid precipitate of three-day cultures, Sephadex G-25 and G-100 fractions
Briefly: Inhibition of triolein hydrolysis by Corynebacterium acnes lipolytic enzyme (radiolabelled triolein, TLC of free oleic acid). The class given is biochemical. The settings on record: 60 minutes at room temperature, pH 7.1 phosphate buffer, triolein 2mM; read-out: Concentration Causing 50% Inhibition of Triolein (2mM) Hydrolysis. The method, then: A 1 ml. aliquot of glyceryl trioleate-(9,10)T is separated on TLC (silica gel) in hexane-ether-acetic acid (70:30:1) and the area corresponding to pure triolein is eluted. The radioactive material is diluted with cold, previously purified triolein (8.8639 g.) in 500 ml. of benzene. The resulting solution is 20mM in triolein.
The crude enzyme prepared by ethanol-acetic acid precipitation from three day cultures of Corynebacterium acnes (ATCC No. 6919) is passed successively through Sephadex G-25 and G-100 columns, and the concentrate is diluted to 250 ml. for use in the assay described below.
An emulsion is prepared by evaporating 5.70 ml. of the benzene solution, prepared in Example 1 above; 6 ml. of 10% gum arabic in water and 3.4 ml. of 0.05M phosphate buffer (pH 7.1) are added, and the mixture is sonicated for three 20 second intervals. Aliquots (0.7 ml.) containing […] emulsified triolein are added to each of 10 1/6 dram vials for each compound to be assayed.
Vial No. 1 receives an additional 0.3 ml. buffer at time 0, and acts as 0 control. […]
The hydrolysis is allowed to proceed for 60 minutes at room temperature, after which time, the vials are transferred to a silicone oil bath and maintained at 95° C. […] The areas corresponding to free oleic acid (after visualization with iodine vapor) are scraped directly into scintillation vials and counted. […]

Setting [3] is: ATCC6919, 72 hours, 37° C., Difco Fluid Thioglycollate medium.
[4] abbreviates: 5% gel of Example 8, topical three times daily, two-week treatment, 21 subjects.

T1 sequence (Q59644 entry or part of it): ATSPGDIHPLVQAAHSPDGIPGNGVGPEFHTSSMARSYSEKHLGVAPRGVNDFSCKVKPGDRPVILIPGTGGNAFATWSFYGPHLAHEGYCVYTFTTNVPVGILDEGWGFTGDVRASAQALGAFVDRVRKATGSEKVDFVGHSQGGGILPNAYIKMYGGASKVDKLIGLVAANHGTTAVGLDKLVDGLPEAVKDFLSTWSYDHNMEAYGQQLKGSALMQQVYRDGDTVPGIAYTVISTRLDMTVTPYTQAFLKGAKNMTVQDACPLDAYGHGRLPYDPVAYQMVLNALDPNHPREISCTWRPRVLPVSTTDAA

As for `CCCCCCCC/C=C\CCCCCCCC(=O)N(CCO)CCO` [Oleic acid diethanolamide], the MIC with C. acnes (ATCC No. 6919) (setting [3]) is ~12.5 µg/mL (≈ 33.8 µM). Further, in test [1] (setting [4]), the “free fatty acid values, average lowering versus placebo” value came out at 11% and the “total sebum values, average lowering versus placebo” value is given as 8%. The “carryover effect upon total sebum level” value in test [1] (5% gel, crossover study) is on record as “no indication of a carryover effect”. The “overall reduction of average free fatty acid content, end of active treatment versus immediately prior to treatment” value in test [1] (5% gel, two-week treatment) is listed as “approximately 20%”. In addition, the “Maximum reduction in free fatty acid levels, subject two” value in test [1] (5% gel, two-week treatment, subject two) is 78%. Also, the “duration of carryover effect upon free fatty acid levels after termination of use” value in test [1] (subjects given active agent before placebo) is given as “at least two weeks”.

As to `CC(C)CCCCCCCCCCCCCCC(=O)N(CCO)CCO` [Isostearic acid diethanolamide], in the test on C. acnes (ATCC No. 6919) (setting [3]), the MIC was ~12.5 µg/mL (≈ 33.6 µM).

`CCCCCCCC/C=C\CCCCCCCC(=O)O` [Oleic acid, reference compound]: in the test with C. acnes (ATCC No. 6919) (72 hours), the “Effect on growth of C. acnes” value is “growth stimulatory”.

`CCCCCCCCCCCCCC(=O)N(CCO)CCO` [Myristic acid diethanolamide]: in the test on C. acnes (ATCC No. 6919) (setting [3]), the MIC is ~6.25 µg/mL (≈ 19.8 µM).

Take `CCCCCCCCCCCC(=O)N(CCO)CCO` [Lauric acid diethanolamide]: the MIC with C. acnes (ATCC No. 6919) (ATCC6919, 72 h) is ~12.5 µg/mL (≈ 43.5 µM).

For `CCCCCCCCCCCCCCCC(=O)N(CCO)CCO` [Palmitic acid diethanolamide], the MIC in the test on C. acnes (ATCC No. 6919) (setting [3]) is ~6.25 µg/mL (≈ 18.2 µM).

Regarding `CCCCCCCC/C=C\CCCCCCCC(=O)OCC(COC(=O)CCCCCCC/C=C\CCCCCCCC)OC(=O)CCCCCCC/C=C\CCCCCCCC` [Triolein, reference compound], the “Effect on growth of C. acnes” value in the test with C. acnes (ATCC No. 6919) (72 hours) is “growth stimulatory”.

On to `C=CCCCCCCCCC(=O)N(CCO)CCO` [Undecylenic diethanolamide, reference compound], for which the MIC in the test with C. acnes (ATCC No. 6919) (setting [3]) was > 300 µg/mL.

Regarding N-morpholinooleamide, the IC50 in test [2] worked out at 700 µM.
